The values below are quoted from earlier work in patent US20220265670A1, “COMPOSITION AND USE THEREOF FOR THE TREATMENT OF CUTANEOUS MASTOCYTOSIS” (AC BIOSCIENCE SA, priority 2019, published 2022).

pIC50: −log10 of the molar value.

The target of data set [1] is c-Kit (Homo sapiens, UniProt P10721).
In data set [2] the test system is mast degranulation. The following applies: low masitinib concentrations.
The subject of data set [3] is PDGF-R. The following applies: cellular level; read-out: IC50, PDGF-R-dependent cell proliferation.
Data set [4] has as its system JM-mutated (exon 11) c-Kit. Particulars: cellular level; read-out: IC50, JM-mutated (exon 11) c-Kit-dependent cell proliferation.

Chain of c-Kit (P10721 26-976): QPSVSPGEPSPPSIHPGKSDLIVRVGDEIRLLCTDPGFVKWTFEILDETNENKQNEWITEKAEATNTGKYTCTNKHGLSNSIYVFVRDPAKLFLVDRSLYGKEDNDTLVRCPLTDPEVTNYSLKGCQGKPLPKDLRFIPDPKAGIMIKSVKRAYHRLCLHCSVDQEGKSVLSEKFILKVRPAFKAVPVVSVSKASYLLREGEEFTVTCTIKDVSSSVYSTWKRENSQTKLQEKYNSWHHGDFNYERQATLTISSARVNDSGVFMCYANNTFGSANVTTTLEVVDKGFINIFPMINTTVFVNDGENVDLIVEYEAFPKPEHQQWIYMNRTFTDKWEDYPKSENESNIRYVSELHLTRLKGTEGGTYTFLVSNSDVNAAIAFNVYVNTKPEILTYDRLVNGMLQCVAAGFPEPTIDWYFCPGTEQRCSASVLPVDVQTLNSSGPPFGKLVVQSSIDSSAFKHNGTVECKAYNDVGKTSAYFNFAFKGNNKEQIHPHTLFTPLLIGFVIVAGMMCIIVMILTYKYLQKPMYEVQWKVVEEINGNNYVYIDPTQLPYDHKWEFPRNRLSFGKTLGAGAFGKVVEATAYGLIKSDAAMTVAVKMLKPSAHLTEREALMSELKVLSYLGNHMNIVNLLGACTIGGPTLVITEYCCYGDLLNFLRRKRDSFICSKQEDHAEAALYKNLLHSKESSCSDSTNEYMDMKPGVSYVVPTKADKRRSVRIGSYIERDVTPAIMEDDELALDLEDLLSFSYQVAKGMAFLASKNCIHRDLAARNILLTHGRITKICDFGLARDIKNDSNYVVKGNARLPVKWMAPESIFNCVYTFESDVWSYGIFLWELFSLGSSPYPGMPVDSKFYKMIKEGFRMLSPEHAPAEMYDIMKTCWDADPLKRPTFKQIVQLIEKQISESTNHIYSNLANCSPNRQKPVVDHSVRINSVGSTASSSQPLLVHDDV

Turning to `Cc1ccc(NC(=O)c2ccc(CN3CCNCC3)cc2)cc1Nc1nc(-c2cccnc2)cs1` [AB3280], the “inhibitory profile relative to masitinib” value in data set [1] is “essentially the same inhibitory profile as masitinib, even though slightly less potent than masitinib”.

`Cc1ccc(NC(=O)c2ccc(CN3CCN(C)CC3)cc2)cc1Nc1nc(-c2cccnc2)cs1` [Masitinib]: in data set [2], the “inhibition of mast degranulation” value is reported as “significant inhibition of mast degranulation”. In addition, the pIC50 in data set [3] is […]; in data set [4] it was 8.30.
